Test results from patent publication US10610582B2, “Compound and method for vaccination and immunisation” (PCI Biotech AS, priority 2013, dated 2020).
Where two headings read alike, the source gives them in different places.

How the values were obtained:
[1] = system: IL-2; assay type: in vivo, C57BL/6 mice; conditions: day 14 spleen, 10 μg OVA + labelled TLR ligand + PCI, compared with other groups
[2] = system: IFN-γ; assay type: in vivo, C57BL/6 mice; conditions: day 14 spleen, 10 μg OVA + labelled TLR ligand + PCI, compared with other groups
[3] = system: antigen specific CD8 T-cells (HPV pentamer); experiment: PCI with HPV peptide antigen and poly(IC) in normal mice, HPV pentamer flow cytometry (Example 12); conditions: after three immunisations; 50 μg HPV peptide + 10 μg poly(IC) twice, 3rd with poly(IC) + PCI (100 μg TPCS2a + light), group 6
[4] = system: antigen-specific CD8+ T-cells (TRP-2 pentamer); experiment: PCI with melanoma antigen peptides (TRP-2 and gp100) and poly(IC) in normal mice, TRP-2 pentamer flow cytometry (Example 6); assay type: in vivo, C57BL/6 mice; conditions: after 2nd immunisation
[5] = system: antigen specific CD8 T-cells (HPV pentamer); experiment: PCI with HPV short peptide antigen and poly(IC) in normal mice, HPV pentamer flow cytometry (Example 16)
[6] = system: antigen specific CD8 T-cells; assay type: in vivo, C57BL/6 mice; conditions: 3rd immunisation (day 51) with poly(IC)+PCI after two immunisations with poly(IC) only, group 2
Method: The generation of immunological memory was tested by a 3rd immunisation at day 51 with a poly(IC)+PCI treatment. […]

[7] = system: antigen specific CD8 T-cells; assay type: in vivo, C57BL/6 mice; conditions: 200 μg OVA + 10 μg poly(IC) injected 2 h before illumination, TPCS2a 150 μg 18 h before illumination
Method: In all groups TPCS2a was injected 18 h before illumination, while OVA antigen and poly(IC) was either injected 18 h before illumination in a mixture with TPCS2a, or 2 h before illumination as a separate injection. Illumination was for 6 min with the LumiSource illumination device. […]

[8] = system: antigen specific CD8 T-cells (HPV pentamer); experiment: PCI with HPV long peptide antigen and poly(IC) in normal mice, HPV pentamer flow cytometry (Example 15)
[9] = system: antigen specific CD8 T-cells; assay type: in vivo, C57BL/6 mice; conditions: particularly after 2nd immunisation; 200 μg OVA + 50 μg poly(IC) + PCI (150 μg TPCS2a + light), group 5
Excerpt: The following experimental groups were included:

[10] = system: OVA-specific CD8 T-cells; experiment: Vaccination with OVA, Poly(IC) or CpG ODN2395 in mice given OT-1 cells: OVA-specific CD8 T-cells in blood by flow cytometry (Example 3); assay type: in vivo, C57BL/6 mice; conditions: day 7
Method: One day prior to the immunisation, spleens and lymph nodes were isolated from female OT-1 mice, and erythrocytes were removed by lysis (RBC Lysing Buffer Hybri-Max from Sigma-Aldrich) from the homogenised cell suspensions. […] One day or 8 hours later, mice were bled by tail bleeding, and the blood was collected in heparin-containing tubes for analysis of the baseline frequency of OVA-specific CD8 T cells.
The illumination time was 6 minutes.
At the end of the experiment (day 14), the mice were euthanized and the splenocytes analysed ex vivo.

[11] = system: antigen specific CD8 T-cells
[12] = TRP-2 + gp100 peptides (50 μg each) with the labelled agent alone (10 μg poly(IC), or PCI = 100 μg TPCS2a + light), vs untreated
[13] = HPV short peptide with only the labelled agent (only p(IC) or only PCI) for both immunisations
[14] = 10 μg OVA with the labelled agent alone (50 μg ODN2395 CpG or 50 μg Poly(IC) without PCI; PCI = 150 μg TPCS2a + light without adjuvant)

Compound | IL-2 production in total spleen cells (ELISA) [1] | IFN-γ production in total spleen cells (ELISA) [2] | % antigen-specific, CD44+ cells of the total CD8+ cells (HPV pentamer) [3] | % antigen-specific, CD44+ cells of the total CD8+ cells (TRP-2 pentamer) [4, 12] | % antigen-specific, CD44+ cells of the total CD8+ cells (TRP-2 pentamer) ([4]; TRP-2 + gp100 peptides + 10 μg poly(IC) + PCI (100 μg TPCS2a + light), group 4) | % antigen-specific, CD44+ cells of the total CD8+ cells (HPV pentamer) [5, 13] | % antigen-specific, CD44+ cells of the total CD8+ cells (HPV pentamer) ([5]; HPV short peptide, 1st immunisation p(IC)+PCI, 2nd immunisation PCI only, group 6) | % antigen-specific, CD44+ cells of the total CD8+ cells (HPV pentamer) ([5]; after two immunisations, both with 50 μg HPV short peptide + 10 μg p(IC) + PCI (100 μg TPCS2a + light), group 5) | % antigen-specific, CD44+ cells of the total CD8+ cells [6] | % antigen-specific, CD44+ cells of the total CD8+ cells [7] | % antigen-specific, CD44+ cells of the total CD8+ cells (HPV pentamer) ([8]; HPV long peptide + 10 μg p(IC) twice, without PCI, group 2) | % antigen-specific, CD44+ cells of the total CD8+ cells (HPV pentamer) ([8]; HPV long peptide, one immunisation with PCI+p(IC), one with only PCI, groups 4 and 5) | % antigen-specific, CD44+ cells of the total CD8+ cells (HPV pentamer) ([8]; after two immunisations, both with 50 μg HPV long peptide + 10 μg p(IC) + PCI (100 μg TPCS2a + light), group 3) | % antigen-specific, CD44+ cells of the total CD8+ cells [9] | % antigen-specific, CD44+ cells of the total CD8+ cells in blood ([10]; 10 μg OVA + 50 μg labelled adjuvant combined with PCI (150 μg TPCS2a + light)) | % antigen-specific, CD44+ cells of the total CD8+ cells in blood [10, 14] | % antigen-specific, CD44+ cells of the total CD8+ cells ([11]; 10 μg OVA + poly(IC) (50 μg 1st, 10 μg 2nd) + red light PCI, group 6) | % antigen-specific, CD44+ cells of the total CD8+ cells ([11]; 100 μg OVA + poly(IC) (50 μg 1st, 10 μg 2nd) + red light PCI, group 7, vs antigen alone) | % antigen-specific, CD44+ cells of the total CD8+ cells ([11]; 10 μg OVA alone or with red light PCI (150 μg TPCS2a, 652 nm) only, after 1st and 2nd immunisation)
CCOCc1nc2c(N)nc3ccccc3c2n1CC(C)(C)O [R848, 1-[4-amino-2-(ethoxymethyl)imidazo[4,5-c]quinolin-1-yl]-2-methylpropan-2-ol] | highest | highest |  |  |  |  |  |  |  |  |  |  |  |  |  |  |  |  | 
Polyinosine-polycytidylic acid [Poly(IC)] |  |  | HPV-specific immune response was induced | no significant increase in antigen-specific cells | clear synergistic effect leading to a significant increase in the number of antigen-specific CD8+ T-cells | no immune response | significant immune response | significant immune response | did not seem to boost immunisation to any significant degree | immune response is enhance | no effect | weaker, but still significant immune response | strong HPV-specific immune response | substantially better immunisation than only poly(IC) (group 4) or only PCI (group 3) | clear synergistic effect | no significant | required to achieve an immune response | substantially better | 
tetraphenyl chlorin disulfonate [PCI] |  |  |  | no significant increase in antigen-specific cells |  | no immune response |  |  |  |  |  |  |  |  |  | substantially more potent than either of these adjuvants |  |  | no immunisation effect
